Laboratory results taken from patent US20260176228A1, “MODULATORS OF LIVER RECEPTOR HOMOLOGUE 1 (LRH-1) AND USES” (Emory University, priority 2022, published 2026).

Legend:
LRH-1 LBD [1] = target: T1, LRH-1 LBD (Homo sapiens, UniProt O00482); assay: FP competition (binding) assay; conditions: interval in brackets in the cell
T1 construct: LRH-1 LBD (residues 299-541) in the pMSC7 vector; His tag; made in house; host or cells: BL21 (DE3) pLysS E. coli

LRH-1 = target: T2, LRH-1 (Homo sapiens, UniProt O00482); assay: Luciferase reporter (activation) assay in HeLa cells transfected with full-length LRH-1 and SHP-luc reporter; format: cell-based; conditions: 24 hours treatment, interval in brackets in the cell
T2 construct: The transfected plasmids included full-length LRH-1 in a pCI vector (5 ng/well); expressed in transfected cells; host or cells: HeLa cells
T2 sequence (O00482 whole entry): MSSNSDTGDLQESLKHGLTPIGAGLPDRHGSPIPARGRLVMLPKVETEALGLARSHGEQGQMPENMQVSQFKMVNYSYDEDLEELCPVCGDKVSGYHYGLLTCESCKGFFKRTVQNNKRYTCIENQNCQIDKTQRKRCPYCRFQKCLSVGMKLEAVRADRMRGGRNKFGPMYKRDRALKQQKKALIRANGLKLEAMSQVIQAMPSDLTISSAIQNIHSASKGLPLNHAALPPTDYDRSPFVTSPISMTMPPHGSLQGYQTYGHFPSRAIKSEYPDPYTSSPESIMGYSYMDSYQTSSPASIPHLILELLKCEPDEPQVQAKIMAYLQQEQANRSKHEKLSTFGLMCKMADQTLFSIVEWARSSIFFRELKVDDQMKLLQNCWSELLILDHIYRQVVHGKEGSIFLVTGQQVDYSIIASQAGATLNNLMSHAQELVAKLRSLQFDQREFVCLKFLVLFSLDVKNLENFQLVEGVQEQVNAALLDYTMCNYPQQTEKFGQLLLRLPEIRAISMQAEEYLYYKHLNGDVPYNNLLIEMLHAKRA
Experimental: HeLa cells were seeded at a density of 10,000 cells per well in white-walled, clear-bottomed 96-well culture plates. The next day, cells were transfected with LRH-1 and reporters, using Fugene™ HD (Roche; Indianapolis, IN) at a ratio of 5:2 Fugene™ (μl): DNA (μg). The transfected plasmids included full-length LRH-1 in a pCI vector (5 ng/well), and a SHP-luc reporter, encoding the LRH-1 response element and surrounding sequence from the SHP promoter cloned upstream of firefly luciferase in the pGL3 basic vector (50 ng/well). Cells were also co-transfected with a constitutive Renilla luciferase reporter (utilizing the CMV promoter), which was used for normalization of firefly signal (1 ng/well). Control cells received pCI empty vector at 5 ng/well in place of LRH-1-pCI. Agonists were dissolved in DMSO and then diluted into media, with a final concentration of 0.3% DMSO in all wells. Luciferase signal was quantified using the DualGlo™ kit (Promega; Madison, WI). Experiments were conducted at least two times in triplicate. Compounds were synthesized and evaluated in biological assays.

LRH-1 LBD [2] = target: T1, LRH-1 LBD; assay: Thermal stability assay (Tycho NT.6) of LRH-1 LBD complexed with ligands; format: binding; conditions: LRH-1 LBD with 5-fold molar excess of ligand; for Inflection Point (Thermal Stability), shift in parentheses: value in parentheses
Experimental: Thermal shift was also assessed for each of the compounds to determine the protein thermal stability. Thermal stability of the LRH-1 LBD complexed with ligands was determined using a Tycho NT.6 Nanotemper. The LRH-1 LBD was incubated with 5-fold molar excess of ligand (final DMSO concentration was 1.4%) overnight at 4° C. in assay buffer (150 mM NaCl, 20 mM Tris-HCl, and 5% glycerol (pH 7.4)). Complexes were centrifuged at high speed for five minutes and then loaded into capillaries. Tryptophan/tyrosine fluorescence was monitored at wavelengths of 330 nm and 350 nm over a 30° C./min gradient (35° C.-95° C.). The inflection point was determined with Tycho NT.6 software. Two separate experiments were conducted in triplicate.

hepatic LRH-1 = assay: Liver target gene expression in H-mLRH-1 mice (RNA-seq, RT-qPCR); format: in vivo; conditions: 30 mg/Kg IP injection
Experimental: FIGS. 2A, 2B, and 2C show the target gene expression driven by 6N-10CA-ME. FIG. 2A is a Volcano Plot showing RNA-seq of H-mLRH-1 mice treated with 3 mg/Kg of 6N-10CA-ME via an intraperitoneal injection. FIG. 2B is a Volcano Plot showing RNA-seq of H-mLRH-1 mice treated with 30 mg/Kg of 6N-10CA-ME via an intraperitoneal injection. FIG. 2C is a RT-qPCR showing target gene expression at 3 and 30 mg/kg doses.
The tissue distribution of compounds as described herein and the dosage needed for the in vivo activation of hepatic LRH-1 were evaluated. For these studies, H-mLRH-1 mice (male and female; 10 weeks of age) were used. A single dose time course experiment was conducted in which different cohorts of H-mLRH-1 mice (n=6) were given a high dose (i.e., 30 mg/kg compound) via oral and intraperitoneal (IP) delivery. Liver tissue was harvested and the gene expression of Cyp7a1, Scarb1, ApoA4, and Shp was measured using standard qPCR methods at 1, 3, 6, 12, and 24 hrs. The time of peak target gene expression for a dose finding study was selected. Different cohorts of H-mLRH-1 mice were given 6 doses of the compounds using a half-log scale (i.e., 0, 0.003, 0.03, 0.3, 3, and 30 mg/kg) via oral or IP delivery. Collected liver tissue was used to monitor the expression of the genes listed above.

SF-1 = SF-1 (Homo sapiens, UniProt Q13285); assay: SF-1 LUC-reporter gene activation in cultured cells; format: cell-based
Chain of SF-1 (Q13285 whole entry): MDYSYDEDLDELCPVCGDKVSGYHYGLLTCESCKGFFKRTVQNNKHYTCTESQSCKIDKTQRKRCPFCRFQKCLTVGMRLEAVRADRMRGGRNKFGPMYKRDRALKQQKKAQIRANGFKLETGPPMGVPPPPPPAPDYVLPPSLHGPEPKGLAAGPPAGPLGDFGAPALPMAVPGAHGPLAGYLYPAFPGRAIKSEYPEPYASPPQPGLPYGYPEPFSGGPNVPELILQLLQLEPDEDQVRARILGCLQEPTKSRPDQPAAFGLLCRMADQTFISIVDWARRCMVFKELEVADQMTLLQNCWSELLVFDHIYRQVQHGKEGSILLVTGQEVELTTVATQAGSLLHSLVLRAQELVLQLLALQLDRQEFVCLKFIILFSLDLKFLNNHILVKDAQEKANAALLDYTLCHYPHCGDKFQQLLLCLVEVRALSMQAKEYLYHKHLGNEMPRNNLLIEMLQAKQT

[3] = test system: other nuclear receptors (NRs); assay: Nuclear receptor cross-reactivity in reporter cells; format: cell-based; conditions: 2 μM in reporter cells; normalized to reference agonist for each receptor
Experimental: 6N-10CA-ME was introduced to reporter cells at 2 μM and the activity of respective NRs was tested. Data are normalized relative to activity induced by the appropriate reference agonist for each receptor.
SF-1 activity was assessed using RT-qPCR for target genes (e.g., Star, Fdps, Hmgcr), though morphological/histological examination of these organs and by monitoring circulating levels of cortisol, aldosterone and androsterone using targeted LC/MS/MS.

[4] = test system: H-mLRH-1 mice with diet-induced obesity; assay: Diet-induced obesity (HFD) model, glucose tolerance; format: in vivo; conditions: HFD (60% fat) mice, 3 mg/kg, intraperitoneal daily from 12 to 16 weeks of HFD
Experimental: Male and female mice were treated with 6N-10CA-ME via an intraperitoneal injection starting at 12 weeks of High Fat Diet (HFD; 60% fat) feeding and continuing daily to 16 weeks of HFD feeding. (Panel A) Summary of body weights of mice in each group at 0, 12, and 16 weeks of HFD feeding. (Panels B and C) Fasting blood glucose (mg/dL) levels of mice in each group at 12 and 16 weeks of HFD feeding. (Panel D) Glucose tolerance tests (GTT) following administration of glucose (2 g/kg) at 12 and 16 weeks of HFD feeding. (Panel E) Area under the curve (AUC) summary of GTT at 12 and 16 weeks of HFD feeding. Data are represented as means+/−SEM. Sample size is 6-17 per group. **** p<0.0001 vs. chow. Data were analyzed with a two-way ANOVA with Tukey multiple comparison test.
In this study, a mouse model of DIO was used to evaluate the in vivo efficacy of the compounds as described herein, including the ability of the compounds to (1) attenuate hepatic steatosis and (2) improve glucose tolerance and insulin resistance.
H-mLRH-1 mice (male and female) were fed one of the following diets (OpenSource Diets) for 16 weeks starting at 8 weeks of age: (1) Control Diet (10% fat diet, D12450Ji) or (2) High Fat Diet (HFD, 60% fat; D12492i). […]

diabetic mice = diabetic mice fed DLPC; Lee et al. Nature 2011; cited from earlier work

T1 sequence (O00482 299-541): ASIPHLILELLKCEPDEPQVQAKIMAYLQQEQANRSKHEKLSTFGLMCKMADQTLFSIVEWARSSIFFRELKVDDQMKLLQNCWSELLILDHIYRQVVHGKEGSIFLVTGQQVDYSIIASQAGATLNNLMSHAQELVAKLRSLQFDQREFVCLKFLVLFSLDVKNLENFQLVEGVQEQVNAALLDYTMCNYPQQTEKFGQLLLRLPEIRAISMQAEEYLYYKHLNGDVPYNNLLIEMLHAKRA

Structure (SMILES) | Ki (LRH-1 LBD [1]) [nM] | EC50 (LRH-1) [nM] | Inflection Point (Thermal Stability) (LRH-1 LBD [2]) [°C] | Inflection Point (Thermal Stability), shift in parentheses (LRH-1 LBD [2]) | Liver target gene expression (hepatic LRH-1) | SF-1 activity (LUC-reporter gene activation) (SF-1) | Cross-reactivity with other nuclear receptors [3] | Glucose intolerance [4] | Glucose tolerance and hepatic fat accumulation (diabetic mice)
C=C(c1ccccc1)C12CCC(NS(N)(=O)=O)C1CC(CCOCCCOCCC(=O)O)=C2c1ccccc1 (stereo not drawn) [Compound 6N-10CA-DE, 3-(3-(2-(3-phenyl-3a-(1-phenylvinyl)-6-(sulfamoylamino)-1,3a,4,5,6,6a-hexahydropentalen-2-yl)ethoxy)propoxy) propanoic acid] | 480 | 1200 | 61 | +5.9 °C |  |  |  |  | 
C=C(c1ccccc1)C12CCC(NS(N)(=O)=O)C1CC(CCCCOCCCCC(=O)O)=C2c1ccccc1 (stereo not drawn) [Compound 6N-10CA-ME, 5-(4-(3-phenyl-3a-(1-phenylvinyl)-6-(sulfamoylamino)-1,3a,4,5,6,6a-hexahydropentalen-2-yl)butoxy) pentanoic acid] | 12 | 50 | 65 | +9.9 °C | elevation of Cyp7a1 and Apoa4 and a reduction in Fasn | displays SF-1 activity | minimal cross-reactivity | reduces glucose intolerance | 
C=C(c1ccccc1)C12CCC(O)C1CC(CCOCCCOCCC(=O)O)=C2c1ccccc1 (stereo not drawn) [Compound 10CA-DE, 3-(3-(2-(6-hydroxy-3-phenyl-3a-(1-phenylvinyl)-1,3a,4,5,6,6a-hexahydropentalen-2-yl)ethoxy)propoxy) propanoic acid] | 10000 | 3200 | 57 | +1.9 °C |  |  |  |  | 
C=C(c1ccccc1)C12CCC(O)C1CC(CCCCOCCCCC(=O)O)=C2c1ccccc1 (stereo not drawn) [Compound 10CA-ME, 5-(4-(6-hydroxy-3-phenyl-3a-(1-phenylvinyl)-1,3a,4,5,6,6a-hexahydropentalen-2-yl)butoxy) pentanoic acid] | 110 | 870 | 59 | +3.9 °C |  |  |  |  | 
CCCCCCCCCCCC(=O)OC[C@H](COP(=O)([O-])OCC[N+](C)(C)C)OC(=O)CCCCCCCCCCC [DLPC, dilauroyl-phosphatidylcholine] |  |  |  |  |  |  |  |  | improved glucose tolerance and reduced hepatic fat accumulation
